Measurements reported in patent US11697648B2, “Fused pyrimidine pyridinone compounds as JAK inhibitors” (THERAVANCE BIOPHARMA R&D IP, LLC, priority 2019, dated 2023).

Target: JAK1 (Homo sapiens (Human), UniProt P23458)
Assay: Biochemical JAK1 kinase assay (LanthaScreen)
Details: not given
Method: (§1) Assay 1: Biochemical JAK and Tyk2 Kinase Assays
(§2) A panel of four LanthaScreen JAK biochemical assays (JAK1, 2, 3 and Tyk2) were carried in a common kinase reaction buffer (50 mM HEPES, pH 7.5, 0.01% Brij-35, 10 mM MgCl2, and 1 mM EGTA). Recombinant GST-tagged JAK enzymes and a GFP-tagged STAT1 peptide substrate were obtained from Life Technologies.
(§3) Serially or discretely diluted compounds were pre-incubated with each of the four JAK enzymes and the substrate in white 384-well microplates (Corning) at ambient temperature for 1 h. ATP was subsequently added to initiate the kinase reactions in 10 μL total volume, with 1% DMSO. […] Kinase reactions were allowed to proceed for 1 hour at ambient temperature before a 10 μL preparation of EDTA (10 mM final concentration) and Tb-anti-pSTAT1 (pTyr701) antibody (Life Technologies, 2 nM final concentration) in TR-FRET dilution buffer (Life Technologies) was added. The plates were allowed to incubate at ambient temperature for 1 h before being read on the EnVision reader (Perkin Elmer). Emission ratio signals (520 nm/495 nm) were recorded and utilized to calculate the percent inhibition values based on DMSO and background controls.
(§4) For dose-response analysis, percent inhibition data were plotted vs. compound concentrations, and IC50 values were determined from a 4-parameter robust fit model with the Prism software (GraphPad Software). Results were expressed as pIC50 (negative logarithm of IC50) and subsequently converted to pKi (negative logarithm of dissociation constant, Ki) using the Cheng-Prusoff equation.

Chain of JAK1 (P23458 whole entry): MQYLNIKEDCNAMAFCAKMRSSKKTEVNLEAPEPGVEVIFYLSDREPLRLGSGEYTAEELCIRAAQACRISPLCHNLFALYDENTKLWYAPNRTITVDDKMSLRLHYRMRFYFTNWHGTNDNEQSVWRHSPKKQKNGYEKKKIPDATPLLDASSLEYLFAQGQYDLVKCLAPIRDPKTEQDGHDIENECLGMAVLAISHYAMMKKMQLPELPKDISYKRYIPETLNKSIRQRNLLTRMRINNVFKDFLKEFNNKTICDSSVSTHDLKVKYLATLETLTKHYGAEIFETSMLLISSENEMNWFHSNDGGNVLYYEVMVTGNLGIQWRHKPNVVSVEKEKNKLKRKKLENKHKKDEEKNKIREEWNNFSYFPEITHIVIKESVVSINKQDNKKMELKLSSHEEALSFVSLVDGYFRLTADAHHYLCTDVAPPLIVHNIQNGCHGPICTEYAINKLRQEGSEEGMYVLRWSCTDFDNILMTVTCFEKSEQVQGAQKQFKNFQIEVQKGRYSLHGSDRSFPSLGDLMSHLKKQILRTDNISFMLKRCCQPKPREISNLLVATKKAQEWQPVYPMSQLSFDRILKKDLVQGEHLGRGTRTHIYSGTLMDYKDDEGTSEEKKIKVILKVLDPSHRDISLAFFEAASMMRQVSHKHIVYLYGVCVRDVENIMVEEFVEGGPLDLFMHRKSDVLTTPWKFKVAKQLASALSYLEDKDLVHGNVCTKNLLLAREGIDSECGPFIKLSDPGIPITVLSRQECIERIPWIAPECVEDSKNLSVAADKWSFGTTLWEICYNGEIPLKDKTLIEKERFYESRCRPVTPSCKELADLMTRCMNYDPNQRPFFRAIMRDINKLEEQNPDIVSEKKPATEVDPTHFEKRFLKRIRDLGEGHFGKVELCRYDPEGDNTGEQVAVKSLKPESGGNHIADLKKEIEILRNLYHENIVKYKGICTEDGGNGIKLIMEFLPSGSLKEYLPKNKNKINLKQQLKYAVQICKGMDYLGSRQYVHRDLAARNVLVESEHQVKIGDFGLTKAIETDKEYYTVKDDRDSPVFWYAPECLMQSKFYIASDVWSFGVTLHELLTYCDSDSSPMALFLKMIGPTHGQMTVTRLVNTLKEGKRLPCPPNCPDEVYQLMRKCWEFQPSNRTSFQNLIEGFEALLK

Row | Compound | JAK 1 (pKi)
1 | C=CC(=O)N1CCN(CCn2c(=O)ccc3cnc(Nc4ccc(N5C[C@@H](C)N(C)[C@H](C)C5)cc4)nc32)[C@@H](C)C1 [Example 199] | E (E represents a pKi value of 7 or below (Ki of 100 nM or above))
2 | C=CC(=O)N1CCN(C(C)Cn2c(=O)ccc3cnc(Nc4ccc(N5CCN(C)CC5)cc4)nc32)CC1 (centres unmarked) [Example 218] | E (E represents a pKi value of 7 or below (Ki of 100 nM or above))
3 | C=CC(=O)N1CCN(CCn2c(=O)ccc3cnc(Nc4ccc(N5C[C@@H](C)N(C)[C@@H](C)C5)cc4)nc32)[C@@H](CC)C1 [Example 222] | E (E represents a pKi value of 7 or below (Ki of 100 nM or above))
4 | C=CC(=O)N1CC(CCn2c(=O)ccc3cnc(Nc4ccc(N5C[C@@H](C)N(C)C[C@@H]5C)cc4)nc32)C1 [Example 253] | E (E represents a pKi value of 7 or below (Ki of 100 nM or above))
5 | C=CC(=O)N1CC(CCn2c(=O)ccc3cnc(Nc4ccn(CC)n4)nc32)C1 [Example 254] | E (E represents a pKi value of 7 or below (Ki of 100 nM or above))
6 | C=CC(=O)N1CCN(CCn2c(=O)ccc3cnc(Nc4ccn(CC)n4)nc32)[C@@H](C)C1 [Example 255] | E (E represents a pKi value of 7 or below (Ki of 100 nM or above))
7 | C=CC(=O)N1CCN(CCn2c(=O)ccc3cnc(Nc4ccn(CC)n4)nc32)[C@@H](CC)C1 [Example 256] | E (E represents a pKi value of 7 or below (Ki of 100 nM or above))
8 | C=CC(=O)N1CC(CCn2c(=O)ccc3cnc(Nc4ccn(C(C)C)n4)nc32)C1 [Example 257] | E (E represents a pKi value of 7 or below (Ki of 100 nM or above))

Target: JAK3 (Homo sapiens (Human), UniProt P52333)
Assay: Biochemical JAK3 kinase assay (LanthaScreen)
Details: not given
Method: as §1, §2, §3, §4

Chain of JAK3 (P52333 whole entry): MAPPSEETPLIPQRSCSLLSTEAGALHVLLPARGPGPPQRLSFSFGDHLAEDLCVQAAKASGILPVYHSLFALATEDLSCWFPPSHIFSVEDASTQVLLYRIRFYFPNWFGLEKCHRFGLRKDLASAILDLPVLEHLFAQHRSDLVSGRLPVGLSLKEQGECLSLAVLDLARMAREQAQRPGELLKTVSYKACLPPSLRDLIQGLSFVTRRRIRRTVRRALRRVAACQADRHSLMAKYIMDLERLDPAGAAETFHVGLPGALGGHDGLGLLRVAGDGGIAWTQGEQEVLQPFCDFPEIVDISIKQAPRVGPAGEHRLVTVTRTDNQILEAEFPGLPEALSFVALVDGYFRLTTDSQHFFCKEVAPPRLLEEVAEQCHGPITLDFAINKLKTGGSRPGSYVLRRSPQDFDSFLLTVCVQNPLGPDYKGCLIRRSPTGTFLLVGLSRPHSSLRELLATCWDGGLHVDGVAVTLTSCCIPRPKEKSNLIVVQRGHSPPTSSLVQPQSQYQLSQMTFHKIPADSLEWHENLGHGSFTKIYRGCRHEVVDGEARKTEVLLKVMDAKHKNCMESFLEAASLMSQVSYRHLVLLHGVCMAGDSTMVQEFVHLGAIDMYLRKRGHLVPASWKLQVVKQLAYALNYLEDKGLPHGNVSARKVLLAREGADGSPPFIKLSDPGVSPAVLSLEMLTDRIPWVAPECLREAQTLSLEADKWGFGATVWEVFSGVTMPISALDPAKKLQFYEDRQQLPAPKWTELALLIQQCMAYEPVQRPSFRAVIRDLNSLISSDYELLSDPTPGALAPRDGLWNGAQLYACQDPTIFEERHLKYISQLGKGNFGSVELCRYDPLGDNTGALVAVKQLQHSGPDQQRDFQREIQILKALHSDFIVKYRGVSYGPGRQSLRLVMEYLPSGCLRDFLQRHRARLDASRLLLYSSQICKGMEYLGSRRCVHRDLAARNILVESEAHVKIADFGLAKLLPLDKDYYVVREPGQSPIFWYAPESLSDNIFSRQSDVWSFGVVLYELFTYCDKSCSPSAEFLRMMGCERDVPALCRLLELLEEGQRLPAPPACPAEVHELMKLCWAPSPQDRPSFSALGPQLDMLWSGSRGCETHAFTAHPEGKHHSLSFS

Row | Compound | JAK 3 (pKi)
9 | C=CC(=O)N1CCN(CCn2c(=O)ccc3cnc(Nc4ccc(N5C[C@@H](C)N(C)[C@H](C)C5)cc4)nc32)[C@@H](C)C1 [Example 199] | B (B represents pKi value between 9 and 10 (Ki between 1 nM and 0.1 nM))
10 | C=CC(=O)N1CCN(C(C)Cn2c(=O)ccc3cnc(Nc4ccc(N5CCN(C)CC5)cc4)nc32)CC1 (centres unmarked) [Example 218] | C (C represents a pKi value between 8 and 9 (Ki between 10 nM and 1 nM))
11 | C=CC(=O)N1CCN(CCn2c(=O)ccc3cnc(Nc4ccc(N5C[C@@H](C)N(C)[C@@H](C)C5)cc4)nc32)[C@@H](CC)C1 [Example 222] | B (B represents pKi value between 9 and 10 (Ki between 1 nM and 0.1 nM))
12 | C=CC(=O)N1CC(CCn2c(=O)ccc3cnc(Nc4ccc(N5C[C@@H](C)N(C)C[C@@H]5C)cc4)nc32)C1 [Example 253] | A (A represents a pKi value≥10 (Ki≤0.1 nM))
13 | C=CC(=O)N1CC(CCn2c(=O)ccc3cnc(Nc4ccn(CC)n4)nc32)C1 [Example 254] | B (B represents pKi value between 9 and 10 (Ki between 1 nM and 0.1 nM))
14 | C=CC(=O)N1CCN(CCn2c(=O)ccc3cnc(Nc4ccn(CC)n4)nc32)[C@@H](C)C1 [Example 255] | B (B represents pKi value between 9 and 10 (Ki between 1 nM and 0.1 nM))
15 | C=CC(=O)N1CCN(CCn2c(=O)ccc3cnc(Nc4ccn(CC)n4)nc32)[C@@H](CC)C1 [Example 256] | B (B represents pKi value between 9 and 10 (Ki between 1 nM and 0.1 nM))
16 | C=CC(=O)N1CC(CCn2c(=O)ccc3cnc(Nc4ccn(C(C)C)n4)nc32)C1 [Example 257] | B (B represents pKi value between 9 and 10 (Ki between 1 nM and 0.1 nM))

Same assay, conditions: selectivity JAK3 over JAK1, difference of pKi

Row | Compound | JAK3 (pKi)-JAK1 (pKi)
17 | C=CC(=O)N1CCN(CCn2c(=O)ccc3cnc(Nc4ccc(N5C[C@@H](C)N(C)[C@H](C)C5)cc4)nc32)[C@@H](C)C1 [Example 199] | A (A represents a value of 3 or above)
18 | C=CC(=O)N1CCN(C(C)Cn2c(=O)ccc3cnc(Nc4ccc(N5CCN(C)CC5)cc4)nc32)CC1 (centres unmarked) [Example 218] | B (B represents a value of 2.5 to 3)
19 | C=CC(=O)N1CCN(CCn2c(=O)ccc3cnc(Nc4ccc(N5C[C@@H](C)N(C)[C@@H](C)C5)cc4)nc32)[C@@H](CC)C1 [Example 222] | A (A represents a value of 3 or above)

Same assay, conditions: selectivity, difference of pKi values

Row | Compound | JAK3 (pKi)-JAK1 (pKi)
20 | C=CC(=O)N1CC(CCn2c(=O)ccc3cnc(Nc4ccc(N5C[C@@H](C)N(C)C[C@@H]5C)cc4)nc32)C1 [Example 253] | A (A represents a value of 3 or above)
21 | C=CC(=O)N1CC(CCn2c(=O)ccc3cnc(Nc4ccn(CC)n4)nc32)C1 [Example 254] | A (A represents a value of 3 or above)
22 | C=CC(=O)N1CCN(CCn2c(=O)ccc3cnc(Nc4ccn(CC)n4)nc32)[C@@H](C)C1 [Example 255] | A (A represents a value of 3 or above)
23 | C=CC(=O)N1CCN(CCn2c(=O)ccc3cnc(Nc4ccn(CC)n4)nc32)[C@@H](CC)C1 [Example 256] | A (A represents a value of 3 or above)
24 | C=CC(=O)N1CC(CCn2c(=O)ccc3cnc(Nc4ccn(C(C)C)n4)nc32)C1 [Example 257] | A (A represents a value of 3 or above)

System: IL-2 stimulated STAT5 phosphorylation in Tall-1 human T cell line (JAK3)
Assay: Cellular JAK3 potency assay: inhibition of IL-2 stimulated pSTAT5 in Tall-1 T cells
Type: cell-based
Details: IL-2 stimulated pSTAT5, Tall-1 T cells
Method: Assay 2: Cellular JAK3 Potency Assay: Inhibition of IL-2 Stimulated pSTAT5 in Tall-1 T Cells
The potency of test compounds for inhibition of interleukin-2 (IL-2) stimulated STAT5 phosphorylation was measured in the Tall-1 human T cell line (DSMZ) using AlphaLisa. Because IL-2 signals through JAK3, this assay provides a measure of JAK3 cellular potency.
Phosphorylated STAT5 was measured via the AlphaLISA SureFire Ultra pSTAT5 (Tyr694/699) kit (PerkinElmer).
Human T cells from the Tall-1 cell line were cultured in a 37° C., 5% CO2 humidified incubator in RPMI (Life Technologies) supplemented with 15% Heat Inactivated Fetal Bovine Serum (FBS, Life Technologies), 2 mM Glutamax (Life Technologies), 25 mM HEPES (Life Technologies) and 1× Pen/Strep (Life Technologies). Compounds were serially diluted in DMSO and dispensed acoustically to empty wells. Assay media (phenol red-free DMEM (Life Technologies) supplemented with 10% FBS (ATCC)) was dispensed (4 μL/well) and plates shaken at 900 rpm for 10 inns. Cells were seeded at 45,000 cells/well in assay media (4 μL/well), and incubated at 37° C., 5% CO2 for 1 hour, followed by the addition of IL-2 (R&D Systems; final concentration 300 ng/ml) in pre-warmed assay media (4 μL) for 30 minutes. After cytokine stimulation, cells were lysed with 6 ul of 3× AlphaLisa Lysis Buffer (PerkinElmer) containing 1× PhosStop and Complete tablets (Roche). The lysate was shaken at 900 rpm for 10 minutes at room temperature (RT). Phosphorylated STAT5 was measured via the pSTAT5 AlphaLisa kit (PerkinElmer). Freshly prepared acceptor bead mixture was dispensed onto lysate (5 μL) under green filtered <100 lux light. Plates were shaken at 900 rpm for 2 mins, briefly spun down, and incubated for 2 hrs at RT in the dark. Donor beads were dispensed (5 μL) under green filtered <100 lux light. Plates were shaken at 900 rpm for 2 minutes, briefly spun down, and incubated overnight at RT in the dark. Luminescence was measured with excitation at 689 nm and emission at 570 nm using an EnVision plate reader (PerkinElmer) under green filtered <100 lux light.
To determine the inhibitory potency of test compounds in response to IL-2, the average emission intensity of beads bound to pSTAT5 was measured in a human T cell line. IC50 values were determined from analysis of the inhibition curves of signal intensity versus compound concentration. Data are expressed as pIC50 (negative decadic logarithm IC50) values (mean standard deviation).

Row | Compound | Tall-1 (pIC50)
25 | C=CC(=O)N1CCN(CCn2c(=O)ccc3cnc(Nc4ccc(N5C[C@@H](C)N(C)[C@H](C)C5)cc4)nc32)[C@@H](C)C1 [Example 199] | A (A represents a pIC50 value≥7.5 (IC50≤32 nM))
26 | C=CC(=O)N1CCN(C(C)Cn2c(=O)ccc3cnc(Nc4ccc(N5CCN(C)CC5)cc4)nc32)CC1 (centres unmarked) [Example 218] | C (C represents a pIC50 value between 6 and 6.7 (IC50 between 1 μM and 200 nM))
27 | C=CC(=O)N1CCN(CCn2c(=O)ccc3cnc(Nc4ccc(N5C[C@@H](C)N(C)[C@@H](C)C5)cc4)nc32)[C@@H](CC)C1 [Example 222] | A (A represents a pIC50 value≥7.5 (IC50≤32 nM))

Same assay, conditions: IL-2 stimulated pSTAT5 in Tall-1 T cells

Row | Compound | Tall-1 (pIC50)
28 | C=CC(=O)N1CC(CCn2c(=O)ccc3cnc(Nc4ccc(N5C[C@@H](C)N(C)C[C@@H]5C)cc4)nc32)C1 [Example 253] | B (B represents a pC50 value between 6.7 (included) and 7.5 (IC50 between 200 nM and 32 nM))
29 | C=CC(=O)N1CC(CCn2c(=O)ccc3cnc(Nc4ccn(CC)n4)nc32)C1 [Example 254] | B (B represents a pC50 value between 6.7 (included) and 7.5 (IC50 between 200 nM and 32 nM))
30 | C=CC(=O)N1CCN(CCn2c(=O)ccc3cnc(Nc4ccn(CC)n4)nc32)[C@@H](C)C1 [Example 255] | C (C represents a pIC50 value between 6 and 6.7 (IC50 between 1 μM and 200 nM))
31 | C=CC(=O)N1CCN(CCn2c(=O)ccc3cnc(Nc4ccn(CC)n4)nc32)[C@@H](CC)C1 [Example 256] | C (C represents a pIC50 value between 6 and 6.7 (IC50 between 1 μM and 200 nM))
32 | C=CC(=O)N1CC(CCn2c(=O)ccc3cnc(Nc4ccn(C(C)C)n4)nc32)C1 [Example 257] | B (B represents a pC50 value between 6.7 (included) and 7.5 (IC50 between 200 nM and 32 nM))
